Data published in PMC6437697 (Journal of Medicinal Chemistry, 2019).

Columns and labels:
Assay in all cases: KINOMEscan
Type in all cases: binding
Conditions in all cases: read-out: % control activity remaining
PRKCE = target: T1, PRKCE (Homo sapiens, UniProt Q02156)
T1 construct: purchased Eurofins DiscoverX KINOMEscan
T1 sequence (Q02156 1-737): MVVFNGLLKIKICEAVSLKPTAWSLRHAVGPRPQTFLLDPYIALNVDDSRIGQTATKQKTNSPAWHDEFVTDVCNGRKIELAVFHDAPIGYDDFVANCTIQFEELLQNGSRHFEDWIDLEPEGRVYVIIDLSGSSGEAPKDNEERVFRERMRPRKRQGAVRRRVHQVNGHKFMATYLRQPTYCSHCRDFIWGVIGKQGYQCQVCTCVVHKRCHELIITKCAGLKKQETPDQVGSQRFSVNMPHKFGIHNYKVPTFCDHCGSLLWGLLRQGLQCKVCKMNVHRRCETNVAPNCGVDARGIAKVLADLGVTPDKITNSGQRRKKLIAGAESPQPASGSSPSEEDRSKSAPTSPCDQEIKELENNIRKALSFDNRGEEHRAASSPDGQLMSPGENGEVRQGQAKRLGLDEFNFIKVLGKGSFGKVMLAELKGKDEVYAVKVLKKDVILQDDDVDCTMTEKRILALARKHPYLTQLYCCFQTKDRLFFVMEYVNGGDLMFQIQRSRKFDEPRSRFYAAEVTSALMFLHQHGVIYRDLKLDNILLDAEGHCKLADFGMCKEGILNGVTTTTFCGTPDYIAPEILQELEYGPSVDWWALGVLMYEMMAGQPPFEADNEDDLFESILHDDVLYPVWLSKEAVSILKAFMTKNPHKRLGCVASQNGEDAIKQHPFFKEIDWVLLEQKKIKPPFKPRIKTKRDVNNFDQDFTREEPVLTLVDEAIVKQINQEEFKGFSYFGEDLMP

MARK4 = target: T2, MARK4 (Homo sapiens, UniProt Q96L34)
T2 construct: purchased Eurofins DiscoverX KINOMEscan
T2 sequence (Q96L34 1-752): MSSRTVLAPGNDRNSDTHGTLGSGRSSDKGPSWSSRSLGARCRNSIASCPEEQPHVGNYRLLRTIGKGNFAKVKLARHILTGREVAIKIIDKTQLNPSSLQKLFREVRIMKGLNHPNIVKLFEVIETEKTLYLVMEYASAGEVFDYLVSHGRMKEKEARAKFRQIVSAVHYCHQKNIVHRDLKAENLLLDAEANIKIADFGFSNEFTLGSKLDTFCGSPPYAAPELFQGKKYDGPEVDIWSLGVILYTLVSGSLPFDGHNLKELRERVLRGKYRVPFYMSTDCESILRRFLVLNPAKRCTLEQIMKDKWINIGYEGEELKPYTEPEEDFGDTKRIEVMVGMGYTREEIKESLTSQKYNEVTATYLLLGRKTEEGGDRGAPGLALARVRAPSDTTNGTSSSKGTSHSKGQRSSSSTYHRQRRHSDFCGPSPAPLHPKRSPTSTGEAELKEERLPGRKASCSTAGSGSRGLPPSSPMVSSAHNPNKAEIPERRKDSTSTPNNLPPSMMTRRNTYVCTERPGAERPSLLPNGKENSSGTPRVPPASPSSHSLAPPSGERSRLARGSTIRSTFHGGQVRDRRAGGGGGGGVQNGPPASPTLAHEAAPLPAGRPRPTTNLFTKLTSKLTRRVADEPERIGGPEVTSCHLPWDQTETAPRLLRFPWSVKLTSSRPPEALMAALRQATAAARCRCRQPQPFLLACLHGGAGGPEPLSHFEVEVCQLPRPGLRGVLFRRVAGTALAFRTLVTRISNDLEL

TGFBR1 = target: T3, TGFBR1 (Homo sapiens, UniProt P36897)
T3 construct: purchased Eurofins DiscoverX KINOMEscan
T3 sequence (P36897 34-503): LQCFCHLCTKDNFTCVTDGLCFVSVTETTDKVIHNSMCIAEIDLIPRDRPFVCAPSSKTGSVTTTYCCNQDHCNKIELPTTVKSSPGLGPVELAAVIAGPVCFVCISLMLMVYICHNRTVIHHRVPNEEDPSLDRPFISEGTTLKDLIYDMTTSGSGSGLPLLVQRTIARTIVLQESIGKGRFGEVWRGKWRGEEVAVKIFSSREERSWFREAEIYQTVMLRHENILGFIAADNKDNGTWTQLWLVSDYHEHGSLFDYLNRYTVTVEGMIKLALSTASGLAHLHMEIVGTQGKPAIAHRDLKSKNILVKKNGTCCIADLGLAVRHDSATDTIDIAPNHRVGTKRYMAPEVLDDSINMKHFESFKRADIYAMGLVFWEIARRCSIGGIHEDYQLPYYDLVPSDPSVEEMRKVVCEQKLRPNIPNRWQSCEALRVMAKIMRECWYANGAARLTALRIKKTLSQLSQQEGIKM

PAK2 = target: T4, PAK2 (Homo sapiens, UniProt Q13177)
T4 construct: purchased Eurofins DiscoverX KINOMEscan
T4 sequence (Q13177 whole entry): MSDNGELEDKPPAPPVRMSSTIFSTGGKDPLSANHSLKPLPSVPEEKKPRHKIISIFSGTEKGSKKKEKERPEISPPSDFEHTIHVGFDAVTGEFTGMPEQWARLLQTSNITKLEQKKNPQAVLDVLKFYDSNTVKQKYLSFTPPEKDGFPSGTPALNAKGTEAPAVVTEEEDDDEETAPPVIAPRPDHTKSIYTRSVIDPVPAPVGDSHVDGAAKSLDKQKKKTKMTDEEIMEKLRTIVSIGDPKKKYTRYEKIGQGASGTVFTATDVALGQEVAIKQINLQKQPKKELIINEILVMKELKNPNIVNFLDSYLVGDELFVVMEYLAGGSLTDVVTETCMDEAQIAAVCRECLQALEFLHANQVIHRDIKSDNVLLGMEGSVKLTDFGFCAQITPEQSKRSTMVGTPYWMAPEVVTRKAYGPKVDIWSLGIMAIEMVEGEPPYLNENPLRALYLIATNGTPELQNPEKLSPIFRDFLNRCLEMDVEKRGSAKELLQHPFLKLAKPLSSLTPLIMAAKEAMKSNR

CDKL5 = target: T5, CDKL5 (Homo sapiens, UniProt O76039)
T5 construct: purchased Eurofins DiscoverX KINOMEscan
T5 sequence (O76039 1-960): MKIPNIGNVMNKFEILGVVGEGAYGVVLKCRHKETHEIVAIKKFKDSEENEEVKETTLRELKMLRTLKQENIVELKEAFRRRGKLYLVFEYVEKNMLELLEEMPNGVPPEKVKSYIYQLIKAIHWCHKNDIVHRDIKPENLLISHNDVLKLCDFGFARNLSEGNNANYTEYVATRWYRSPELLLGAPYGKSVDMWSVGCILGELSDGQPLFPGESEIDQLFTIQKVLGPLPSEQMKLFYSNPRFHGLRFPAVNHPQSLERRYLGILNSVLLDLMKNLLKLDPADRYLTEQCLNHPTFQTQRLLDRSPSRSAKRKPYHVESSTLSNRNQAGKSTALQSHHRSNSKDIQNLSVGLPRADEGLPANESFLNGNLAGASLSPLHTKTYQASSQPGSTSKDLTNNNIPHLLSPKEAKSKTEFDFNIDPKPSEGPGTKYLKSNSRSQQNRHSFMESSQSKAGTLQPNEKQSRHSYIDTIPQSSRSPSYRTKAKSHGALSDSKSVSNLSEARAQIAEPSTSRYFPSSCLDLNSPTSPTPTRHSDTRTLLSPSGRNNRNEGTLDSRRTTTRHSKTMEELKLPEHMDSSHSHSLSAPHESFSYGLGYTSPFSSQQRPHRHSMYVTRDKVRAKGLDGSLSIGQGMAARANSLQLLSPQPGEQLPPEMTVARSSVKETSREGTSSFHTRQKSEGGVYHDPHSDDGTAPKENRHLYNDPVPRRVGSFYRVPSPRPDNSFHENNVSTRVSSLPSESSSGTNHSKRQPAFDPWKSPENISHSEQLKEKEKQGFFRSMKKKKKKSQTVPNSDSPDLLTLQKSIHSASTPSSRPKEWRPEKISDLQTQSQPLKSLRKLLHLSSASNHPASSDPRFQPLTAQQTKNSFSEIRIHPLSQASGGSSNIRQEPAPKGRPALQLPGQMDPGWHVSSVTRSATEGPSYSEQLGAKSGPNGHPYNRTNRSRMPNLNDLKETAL

Row | Structure (SMILES) | remaining binding at 1 µM (PRKCE) [%] | remaining binding at 1 µM (MARK4) [%] | remaining binding at 1 µM (TGFBR1) [%] | remaining binding at 1 µM (PAK2) [%] | remaining binding at 1 µM (CDKL5) [%]
1 | Clc1cc(NCC2CC2)c2ncc(-c3ccc4[nH]ncc4c3)n2n1 [compound 2, 6-Chloro-N-(cyclopropylmethyl)-3-(1H-indazol-5-yl)imidazo[1,2-b]pyridazin-8-amine] | 100 | 92 | 100 | 71 | 100
2 | O=C(CN1CCOCC1)N[C@H]1CC[C@H](Nc2cc(Cl)nn3c(-c4ccc5[nH]ncc5c4)cnc23)CC1 [compound 26] | 96 | 95 | 100 | 76 | 46
3 | CN1CCC(CNc2cc(Cl)nn3c(-c4cc5nc(Nc6ccccc6)[nH]c5cc4F)cnc23)CC1 [compound 31, 6-Chloro-3-(6-fluoro-2-(phenylamino)-1H-benzo[d]imidazol-5-yl)-N-((1-methylpiperidin-4-yl)methyl)imidazo[1,2-b]pyridazin-8-amine] | 86 | 93 | 92 | 91 | 96
